From article PMC7712428, “Dimethoate Induces DNA Damage and Mitochondrial Dysfunction Triggering Apoptosis in Rat Bone-Marrow and Peripheral Blood Cells” (Toxics, 2020)
Several values for one entry are separate records, joined by “and”; a condition that tells them apart may be missing. Equal values may be shown once. Read-outs that look alike come from different tables or passages of the source.

Legend:
Eosinophils = test system: Eosinophils
Text: (§1) The experimental animals—Rattus norvegicus (Wistar strain; 8–10 weeks old; 120 ± 20 gm; males only) were acquired from Indian Institute of Integrative Medicine (IIIM-CSIR) (Jammu, India), quarantined, acclimatized and sacrificed as per standard practice conforming to the University Ethical Regulations. After acclimatization, rats were divided into five groups by stratified randomization with five animals per group. […] Distilled water was used to prepare dosing solutions of test agent and injected via intraperitoneal (i.p.) injection. At 24, 48 and 72 h post-dosing, 5 rats per duration were sacrificed and necessary tissues were isolated for different cytogenetic and molecular parameters. For CA assessment, separate experimental lot was used due to colchicine treatment.
(§2) WBCs were isolated by following the protocol of Lone et al.. Blood was collected in 0.1% EDTA from retro-orbital plexus of rat, followed by incubation for 30 min. 500 µL of blood was then added to a centrifuge tube with 1 mL FACS lysing solution. The blood was incubated for 10 min and centrifuged (2000 rpm, 10 min) at 25 °C. After discarding the supernatant, pellet was washed in 1mL FACS lysing solution followed by centrifuging at 2000 rpm for 5 min. Repeated this step twice and then pellet was put in 500 µL of PBS, leaving only WBCs.
(§3) Protocol of Majeed and colleagues was employed for flow cytometric measurements of change in Ψm. […] Leukocytes were identified via forward and side scatter.

Neutrophils = test system: Neutrophils
Text: as §1, §2, §3

bone marrow cells = details: for Total Aberrations (Mean ± SD): mean percentage; for MI (Mean ± SD): mitotic index mean percentage; for Structural Aberrations Assoc: number of associations; for Structural Aberrations Brk: number of breaks; for Structural Aberrations Del: number of deletions; for Structural Aberrations Dcn: number of dicentrics; for Structural Aberrations Frag: number of fragments; for Structural Aberrations Gp: number of gaps; for Structural Aberrations Ring: number of rings
Text: as §1
Method of Preston et al. was used for preparing the metaphase chromosomes. An aqueous solution of Colchicine (4 mg/kgbw) was injected intraperitoneally 2 h prior to sacrificing the animal. Pre-warm KCL (0.075 M) solution was used to collect the bone marrow cells followed by incubation at 37 °C for 20 min, and then centrifuge at 1000 rpm for 10 min. After fixing the pellet in cold Cornoy’s fixative dropped onto clean pre-chilled glass slide in 30% ethanol and dried in air. 5% buffered Giemsa (pH 7.0) was used for staining. Chromosomal aberrations were analyzed on properly separated metaphases and finally photographed at 100× (Olympus U—PMTV microscope), using oil immersion. The metaphase cells from approximately 1000 cells per concentration per animal both in exposed and control replicates, expressed in percentage were considered for mitotic indices (MI).

peripheral blood cells = details: for Olive Tail Moment / Tail Length (µm): Mean ± SD
Text: as §1
Detection of DNA strand break was performed according to protocol of Singh et al. with some modifications. Briefly, blood was collected using Retro-orbital bleeding during euthanasia. 10μL whole blood cells obtained were mixed with 75 µL of 0.5% LMPA and layered onto frosted slides which was pre-coated with NMA. After putting cover slip, slides were kept for 5–10min. After gelling, removed cover slip gently and added a layer of 90 μL of LMPA. After replacing the cover slip, slides were placed on the slide tray (ice packs) till the agarose layer hardened (5–10 min). Following this, removed the cover slip and by gently immersing the slides in lysis buffer embedded cells were lysed. Cells lysis was performed in cold conditions for a minimum of 2 h in lysing solution.
Alkaline conditions (pH > 13) were used to perform the electrophoresis. After lysis, slides were subjected in electrophoretic buffer at 4 °C for 40 min to achieve the DNA denaturation that allow the DNA unwinding and the expression of alkali labile site. Electrophoresis was then carried out at 0.74 V/cm for 40 min (300 mA; 24 volts) at 4 °C by raising or lowering buffer. Thereafter, neutralization buffer (0.4 M Tris, 10 M HCl; pH = 7.5) were employed to wash the slides. Slides were stained by 80 μL of 1× Ethidium Bromide and excess stain was removed by dipping in chilled distilled water. Slides were examined at 40× magnification under fluorescence microscope coupled with a charge coupled device camera (Olympus).

Platelets = details: 72 h treatment

CNC(=O)CSP(=S)(OC)OC [DM, 0,0- Dimethyl S-(N-methylcarbamoylmethyl) phosphorodithiote]
MMP loss (Eosinophils; 48 h exposure period (Figure 8)): around 30%
MMP loss (membrane potential loss) (Eosinophils; 72 h treatment): greater than 90%
MMP loss (membrane potential loss) (Neutrophils; neutrophils, 72 h treatment): greater than 90%
maximum MMP loss (Neutrophils; neutrophils, initial exposure time): greater than 30%
MMP loss in neutrophils (Neutrophils; range over increased DM doses, initial exposure time): 2–40%
Total Aberrations (Mean ± SD) (bone marrow cells; 20 mg/kgbw, 24 h): 5.66 ± 1.03 **^,a %
Total Aberrations (Mean ± SD) (bone marrow cells; 20 mg/kgbw, 48 h): 5.33 ± 1.43 **^,a %
Total Aberrations (Mean ± SD) (bone marrow cells; 20 mg/kgbw, 72 h): 2.17 ± 0.83 *^,a %
Total Aberrations (Mean ± SD) (bone marrow cells; 40 mg/kgbw, 24 h): 5.83 ± 1.69 **^,a %
Total Aberrations (Mean ± SD) (bone marrow cells; 40 mg/kgbw, 48 h): 5.16 ± 1.74 **^,a %
Total Aberrations (Mean ± SD) (bone marrow cells; 40 mg/kgbw, 72 h): 2.67 ± 0.75 *^,a %
Total Aberrations (Mean ± SD) (bone marrow cells; 60 mg/kgbw, 24 h): 7.50 ± 1.15% and 7.50 ± 1.15 **^,a,*^,b %
Total Aberrations (Mean ± SD) (bone marrow cells; 60 mg/kgbw, 48 h): 6.83 ± 1.90 **^,a %
Total Aberrations (Mean ± SD) (bone marrow cells; 60 mg/kgbw, 72 h): 3.16 ± 0.71 *^,a %
MI (Mean ± SD) (bone marrow cells; 20 mg/kgbw, 24 h): 2.19 ± 0.21 *^,a %
MI (Mean ± SD) (bone marrow cells; 20 mg/kgbw, 48 h): 2.04 ± 0.15 *^,a %
MI (Mean ± SD) (bone marrow cells; 20 mg/kgbw, 72 h): 2.07 ± 0.10 *^,a %
MI (Mean ± SD) (bone marrow cells; 40 mg/kgbw, 24 h): 2.16 ± 0.16 *^,a %
MI (Mean ± SD) (bone marrow cells; 40 mg/kgbw, 48 h): 1.98 ± 0.08 *^,a %
MI (Mean ± SD) (bone marrow cells; 40 mg/kgbw, 72 h): 2.05 ± 0.14 *^,a %
MI (Mean ± SD) (bone marrow cells; 60 mg/kgbw, 24 h): 1.92 ± 0.61 *^,a %
MI (Mean ± SD) (bone marrow cells; 60 mg/kgbw, 48 h): 1.97 ± 0.12 *^,a %
MI (Mean ± SD) (bone marrow cells; 60 mg/kgbw, 72 h): 1.95 ± 0.04 *^,a %
Structural Aberrations Assoc (bone marrow cells; 20 mg/kgbw, 24 h): 4
Structural Aberrations Assoc (bone marrow cells; 20 mg/kgbw, 48 h): 5
Structural Aberrations Assoc (bone marrow cells; 20 mg/kgbw, 72 h): 0
Structural Aberrations Assoc (bone marrow cells; 40 mg/kgbw, 24 h): 6
Structural Aberrations Assoc (bone marrow cells; 40 mg/kgbw, 48 h): 6
Structural Aberrations Assoc (bone marrow cells; 40 mg/kgbw, 72 h): 1
Structural Aberrations Assoc (bone marrow cells; 60 mg/kgbw, 24 h): 4
Structural Aberrations Assoc (bone marrow cells; 60 mg/kgbw, 48 h): 7
Structural Aberrations Assoc (bone marrow cells; 60 mg/kgbw, 72 h): 1
Structural Aberrations Brk (bone marrow cells; 20 mg/kgbw, 24 h): 2
Structural Aberrations Brk (bone marrow cells; 20 mg/kgbw, 48 h): 9
Structural Aberrations Brk (bone marrow cells; 20 mg/kgbw, 72 h): 2
Structural Aberrations Brk (bone marrow cells; 40 mg/kgbw, 24 h): 4
Structural Aberrations Brk (bone marrow cells; 40 mg/kgbw, 48 h): 3
Structural Aberrations Brk (bone marrow cells; 40 mg/kgbw, 72 h): 5
Structural Aberrations Brk (bone marrow cells; 60 mg/kgbw, 24 h): 6
Structural Aberrations Brk (bone marrow cells; 60 mg/kgbw, 48 h): 7
Structural Aberrations Brk (bone marrow cells; 60 mg/kgbw, 72 h): 8
Structural Aberrations Del (bone marrow cells; 20 mg/kgbw, 24 h): 4
Structural Aberrations Del (bone marrow cells; 20 mg/kgbw, 48 h): 5
Structural Aberrations Del (bone marrow cells; 20 mg/kgbw, 72 h): 4
Structural Aberrations Del (bone marrow cells; 40 mg/kgbw, 24 h): 4
Structural Aberrations Del (bone marrow cells; 40 mg/kgbw, 48 h): 4
Structural Aberrations Del (bone marrow cells; 40 mg/kgbw, 72 h): 2
Structural Aberrations Del (bone marrow cells; 60 mg/kgbw, 24 h): 6
Structural Aberrations Del (bone marrow cells; 60 mg/kgbw, 48 h): 5
Structural Aberrations Del (bone marrow cells; 60 mg/kgbw, 72 h): 3
Structural Aberrations Dcn (bone marrow cells; 20 mg/kgbw, 24 h): 8
Structural Aberrations Dcn (bone marrow cells; 20 mg/kgbw, 48 h): 3
Structural Aberrations Dcn (bone marrow cells; 20 mg/kgbw, 72 h): 2
Structural Aberrations Dcn (bone marrow cells; 40 mg/kgbw, 24 h): 12
Structural Aberrations Dcn (bone marrow cells; 40 mg/kgbw, 48 h): 8
Structural Aberrations Dcn (bone marrow cells; 40 mg/kgbw, 72 h): 2
Structural Aberrations Dcn (bone marrow cells; 60 mg/kgbw, 24 h): 10
Structural Aberrations Dcn (bone marrow cells; 60 mg/kgbw, 48 h): 7
Structural Aberrations Dcn (bone marrow cells; 60 mg/kgbw, 72 h): 2
Structural Aberrations Frag (bone marrow cells; 20 mg/kgbw, 24 h): 6
Structural Aberrations Frag (bone marrow cells; 20 mg/kgbw, 48 h): 12
Structural Aberrations Frag (bone marrow cells; 20 mg/kgbw, 72 h): 4
Structural Aberrations Frag (bone marrow cells; 40 mg/kgbw, 24 h): 3
Structural Aberrations Frag (bone marrow cells; 40 mg/kgbw, 48 h): 16
Structural Aberrations Frag (bone marrow cells; 40 mg/kgbw, 72 h): 5
Structural Aberrations Frag (bone marrow cells; 60 mg/kgbw, 24 h): 8
Structural Aberrations Frag (bone marrow cells; 60 mg/kgbw, 48 h): 14
Structural Aberrations Frag (bone marrow cells; 60 mg/kgbw, 72 h): 3
Structural Aberrations Gp (bone marrow cells; 20 mg/kgbw, 24 h): 8
Structural Aberrations Gp (bone marrow cells; 20 mg/kgbw, 48 h): 6
Structural Aberrations Gp (bone marrow cells; 20 mg/kgbw, 72 h): 5
Structural Aberrations Gp (bone marrow cells; 40 mg/kgbw, 24 h): 8
Structural Aberrations Gp (bone marrow cells; 40 mg/kgbw, 48 h): 7
Structural Aberrations Gp (bone marrow cells; 40 mg/kgbw, 72 h): 7
Structural Aberrations Gp (bone marrow cells; 60 mg/kgbw, 24 h): 7
Structural Aberrations Gp (bone marrow cells; 60 mg/kgbw, 48 h): 8
Structural Aberrations Gp (bone marrow cells; 60 mg/kgbw, 72 h): 6
Structural Aberrations Ring (bone marrow cells; 20 mg/kgbw, 24 h): 2
Structural Aberrations Ring (bone marrow cells; 20 mg/kgbw, 48 h): 6
Structural Aberrations Ring (bone marrow cells; 20 mg/kgbw, 72 h): 1
Structural Aberrations Ring (bone marrow cells; 40 mg/kgbw, 24 h): 6
Structural Aberrations Ring (bone marrow cells; 40 mg/kgbw, 48 h): 5
Structural Aberrations Ring (bone marrow cells; 40 mg/kgbw, 72 h): 1
Structural Aberrations Ring (bone marrow cells; 60 mg/kgbw, 24 h): 4
Structural Aberrations Ring (bone marrow cells; 60 mg/kgbw, 48 h): 9
Structural Aberrations Ring (bone marrow cells; 60 mg/kgbw, 72 h): 2
Olive Tail Moment (peripheral blood cells; 20 mg/kgbw, 24 h): 5.65 ± 0.33 ***^,a
Tail Length (µm) (peripheral blood cells; 20 mg/kgbw, 24 h): 22.44 µm and 22.44 ± 2.07 ***^,a µm
Olive Tail Moment (peripheral blood cells; 20 mg/kgbw, 48 h): 4.01 ± 0.48 ***^,a
Tail Length (µm) (peripheral blood cells; 20 mg/kgbw, 48 h): 19.26 ± 1.00 *^,a µm
Olive Tail Moment (peripheral blood cells; 20 mg/kgbw, 72 h): 2.71 ± 0.31 *^,a
Tail Length (µm) (peripheral blood cells; 20 mg/kgbw, 72 h): 16.16 ± 1.35 *^,a µm
Tail Length (µm) (peripheral blood cells; 40 mg/kgbw, 24 h): 24.37 ± 1.66 ***^,a,b µm
Olive Tail Moment (peripheral blood cells; 40 mg/kgbw, 48 h): 5.35 ± 0.48 ***^,a,*^,b
Tail Length (µm) (peripheral blood cells; 40 mg/kgbw, 48 h): 25.07 ± 1.87 ***^,a,b µm
Olive Tail Moment (peripheral blood cells; 40 mg/kgbw, 72 h): 3.13 ± 0.28 *^,a
Tail Length (µm) (peripheral blood cells; 40 mg/kgbw, 72 h): 21.12 ± 1.45 ***^,a µm
Tail Length (µm) (peripheral blood cells; 60 mg/kgbw, 24 h): 30.09 µm and 30.09 ± 2.86 ***^,a,b µm
Olive Tail Moment (peripheral blood cells; 60 mg/kgbw, 48 h): 6.46 ± 0.64 ***^,a,b,c
Tail Length (µm) (peripheral blood cells; 60 mg/kgbw, 48 h): 27.63 ± 3.12 ***^,a,c,**^,b µm
Olive Tail Moment (peripheral blood cells; 60 mg/kgbw, 72 h): 4.84 ± 0.41 **^,a
Tail Length (µm) (peripheral blood cells; 60 mg/kgbw, 72 h): 20.37 ± 1.59 *^,a,c µm
increase of OTM vis-a-vis negative control (peripheral blood cells; single dose of 10 mg DM/kgbw, 24 h): ~5 fold
MMP loss (membrane potential loss) (Platelets): greater than 90%
